For 4 molecules, IC50 results are on record in patent US10611778B2, “Fused bicyclic inhibitors of menin-MLL interaction” (Janssen Pharmaceutica NV, priority 2016, dated 2020).

“And” between values parts separate entries of the source, which are not always exact repeats. Identical values can stand only once. Like-named read-outs stand apart in the source and are kept apart here.

Experiment [1] deals with T1, Menin/MLL (terbium chelate-labeled menin, FITC-MBM1 peptide) (Homo sapiens, UniProt O00255, T541A).
T1 construct: Menin (a.a. 1-610-6×his tag) was labeled with terbium cryptate as follows
T1 sequence (O00255 with tags, fused parts or gaps T541A): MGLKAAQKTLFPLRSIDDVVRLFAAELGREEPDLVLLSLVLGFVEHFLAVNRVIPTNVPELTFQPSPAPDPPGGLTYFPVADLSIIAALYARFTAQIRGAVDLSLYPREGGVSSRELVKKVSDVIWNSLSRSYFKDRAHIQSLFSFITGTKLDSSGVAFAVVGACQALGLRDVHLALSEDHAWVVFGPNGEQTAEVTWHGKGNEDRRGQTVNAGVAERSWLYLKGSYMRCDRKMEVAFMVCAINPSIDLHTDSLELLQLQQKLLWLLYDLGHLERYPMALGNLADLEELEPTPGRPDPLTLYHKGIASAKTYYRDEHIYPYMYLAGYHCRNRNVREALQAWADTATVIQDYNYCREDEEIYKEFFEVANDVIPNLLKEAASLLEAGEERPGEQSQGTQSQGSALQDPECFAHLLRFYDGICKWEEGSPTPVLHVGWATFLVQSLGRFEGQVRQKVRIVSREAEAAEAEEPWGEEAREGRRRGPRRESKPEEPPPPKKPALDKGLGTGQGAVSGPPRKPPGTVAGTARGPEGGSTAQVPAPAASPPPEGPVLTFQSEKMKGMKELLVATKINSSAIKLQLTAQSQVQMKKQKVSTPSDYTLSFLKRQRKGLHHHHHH
The experiment in a line: Menin/MLL homogenous time-resolved fluorescence (HTRF) assay. Format: binding. The method, boiled down: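 Compound preincubated 5 min with terbium-cryptate-labeled menin (aa 1-610, His-tagged; 100 pM final), then 75 nM FITC-MBM1 peptide added, 15 min at ambient temperature; 0.5% DMSO, Tris pH 7.5 buffer. HTRF ratio 520/490 nm; % inhibition vs saturating competitor, IC50 from 11-point three-fold titration from 31 μM.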

Another experiment relates to MV-4-11. The experiment in a line: Proliferation assay (spheroid assay) MV-4-11. Format: cell-based, human. The essentials:
(§1)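 Cells were grown as spheroids in ultra-low attachment round-bottom wells with compound (0.3% DMSO) for 8 d at 37 °C, imaged every 4 h, with confluence as spheroid size. AUC of confluence versus time (t=0 baseline) was expressed as % of DMSO control, and absolute IC50 came from a least-squares nonlinear fit.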

The subject of a further experiment is MOLM14. The experiment can be described thus: Proliferation assay (spheroid assay) MOLM14. Format: cell-based, human. The essentials:
as §1

Where [2] appears, read: averaged values over all measurements, read-out: Menin HTRF assay (IC50).
The mark [3] stands for this setting: Homo sapiens, MV4-11, MV-4-11, averaged values over all measurements, read-out: Spheroid assay MV-4-11 (IC50).
Where [4] appears, read: Homo sapiens, MOLM-14, MOLM14, averaged values over all measurements, read-out: Spheroid assay MOLM14 (IC50).

For `FC(F)(F)Cc1cc2c(N3CC[C@H]4[C@H](CCN4Cc4ccc[nH]4)C3)ncnc2s1` (single isomer, unassigned) [Compound 8], the IC50 in experiment [1] (individual measurements (not averaged), read-out: (3) Menin HTRF assay (IC50 (nM))) is 48 nM; with MV-4-11 (Homo sapiens, MV4-11, 192 h, MV-4-11, 8 d, individual measurements (not averaged), read-out: (2) Spheroid assay MV-4-11 (IC50 (μM))), 2.1 µM; in the experiment on MV-4-11 (MV-4-11, 8 d, individual measurements (not averaged), read-out: (2) Spheroid assay MV-4-11 (IC50 (μM))) it was 2.3 µM; with MOLM14 (MOLM14, 8 d, individual measurements (not averaged), read-out: (2) Spheroid assay MOLM14 (IC50 (μM))), 5.7 µM and > 15 µM.

Turning to `FC(F)(F)Cc1cc2c(N3CCC4C(CCN4Cc4ccccc4)C3)ncnc2s1` (stereo not shown) [Compound 1], the IC50 turned out to be 113 nM in experiment [1] (setting [2]), 1.5 µM in the experiment with MV-4-11 (setting [3]) and 4.4 µM in the experiment with MOLM14 (setting [4]).

As for `FC(F)(F)Cc1cc2c(N3CCC4C3CCN4Cc3ccccc3)ncnc2s1` (stereo not shown) [Compound 2], the IC50 in experiment [1] (setting [2]) turned out to be 797 nM; in the experiment with MV-4-11 (setting [3]), 7.3 µM; in the experiment on MOLM14 (setting [4]) it was 9.8 µM.

Turning to `Fc1ccccc1CN1CC[C@H]2CN(c3ncnc4sc(CC(F)(F)F)cc34)CC[C@H]21` (single isomer, unassigned) [Compound 6], the IC50 in experiment [1] (setting [2]) worked out at 476 nM; in the experiment on MV-4-11 (setting [3]), 1.4 µM; in the experiment with MOLM14 (setting [4]) it was 3.3 µM.
